In patent US6962909B2, “Treatment of neovascularization disorders with squalimine” (Genaera Corporation, priority 1995, dated 2005):
Values after ≈ are worked out from the molar mass of the structure shown. “Also recorded” adds a separate entry of the source.

Assays:
[1] = system: human microvascular cells; experiment: Endothelial cord formation assay; assay type: cell-based
How it was run: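 Human microvascular endothelial cells plated on collagen matrix with VEGF and basic fibroblast growth factor; compound effect assessed on resulting cord-like tubular structures.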

[2] = system: Stage 59-60 Xenopus tadpoles; experiment: Xenopus tadpole assay; assay type: in vivo, Xenopus laevis; conditions: 10 μg/ml in water
How it was run: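 Stage 59-60 Xenopus laevis tadpoles placed in compound dissolved in distilled water at 10 μg/ml, allowing oral uptake and systemic exposure. After 1 hour, capillary blood-flow occlusion in the tail was scored by inverted microscopy (~100×) plus gross observation.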

[3] = Mouse IV PK study; conditions: in vivo
Description: To assess clearance, a mouse IV PK study was performed for compound 319 and squalamine. The compound was administered i.v. and blood samples were taken every 10 minutes. The concentration of the administered steroid was determined by HPLC analysis.

[4] = system: B16 melanoma; experiment: Growth of B16 melanoma in C57B mice; assay type: in vivo; conditions: subcutaneous administration
Description: The growth of B16 melanoma in C57B mice is dependent upon neovascularization.
Using the growth of B16 melanoma cells in C57B mice, a recognized model for the evaluation of inhibitors of angiogenesis on the growth of cancers, the effects of subcutaneous, intraperitoneal and oral administration of squalamine were evaluated.
Animals were implanted with B16 melanoma followed by treatment with compound 1436 or 1256 administered in a combined schedule or separately. […] Thus, a combination of these two compounds achieves a therapeutic benefit in tumors dependent on neovascularization that may prevent metastatic spread.

[5] = system: vitelline capillaries of 3- to 5-day chick embryo; experiment: Chick embryo vitelline capillary regression assay; assay type: in vivo; set-up: key to Vascular reactivity (capillary regression): + = Vascular reactivity; 0 = No vascular reactivity; +/− = Equivocal reactivity; conditions: for Vascular reactivity (capillary regression): 60 minutes
How it was run: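 Compounds were applied onto the 3- to 5-day embryo in 0.1 ml 15% Ficol 400 in PBS. Vascular regression was assessed visually after 60 min, scoring capillary constriction and pinching-off into enclosed blood-island-like sacs.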

[6] = system: Human melanoma WM 1167; experiment: Cytotoxic activity against cancer cells
[7] = system: Lewis lung carcinoma; experiment: In vitro cell growth inhibition (assay of Baker et al.); assay type: cell-based
Source text: (§1) As set forth in Table 7 below, all malignant tumors evaluated in tissue culture, endothelial cells and vascular smooth muscle cells were sensitive to inhibition. Thus, compound 1436 has application in the control of growth factor dependent proliferation of many types of tissue.

[8] = system: PHA-stimulated human lymphocytes; experiment: Inhibition of mitogen-stimulated growth of human T-cells; assay type: cell-based; conditions: 10 μg/ml; 72 hours
Description: Human heparinized blood, freshly collected, was introduced into tissue culture flasks containing 10 μg/ml phytohaemagglutinin (PHA) in RPMI medium with 10% FCS. Various purified steroids were introduced subsequently at concentrations of 1, 5, and 10 μg/ml. Cultures were incubated for 72 hours, after which time colcemid was added to 1 μg/ml. Cultures were maintained for an additional 2 hours, and cells collected. Mitotic figures were estimated using standard cytochemical techniques, following Giemsa staining.

[9] = Fasting blood glucose in mice; assay type: in vivo
Description: To study the effect of steroid administrator or the NHE responsible for secretion of insulin, several of the aminosterols from shark liver were administered to fasting mice. Male CD-1 mice were assigned to one of four treatment groups. Whole blood glucose was tested using glucometer (Lifescan Glucometer II and One Touch test strips). Statistical analysis was via one-way analysis of variance (ANOVA) followed by subsequent Bonferonni's t-test.

[10] = system: Human ovarian carcinoma SKOV3; experiment: In vitro cell growth inhibition (assay of Baker et al.); assay type: cell-based
Description: as §1
Using the assay described above, the anticancer effects of compound 1437 against several cancer lines was assessed.

CC(CCC(=O)O)[C@H]1CCC2C3CC[C@H]4C[C@@H](NCCCNCCCCN)CC[C@]4(C)C3CC[C@@]21C (some centres unmarked) [Compound 319]
Effect on endothelial cord formation ([1]; 0.01 μg/ml): −
Effect on endothelial cord formation ([1]; 0.1 μg/ml): +
Effect on endothelial cord formation ([1]; 1.0 μg/ml): +
Effect on endothelial cord formation ([1]; 10.0 μg/ml): +
Pharmacological category in tadpole assay (similarity to a reference steroid) [2]: common vascular occlusive effect
half-life [3]: ~14 min
Control of B16 melanoma [4]: achieved control of B16 in C57B mice to an extent almost comparable to squalamine
Vascular reactivity (capillary regression) ([5]; 0.001 μg applied): +/−
Vascular reactivity (capillary regression) ([5]; 0.01 μg applied): +
Vascular reactivity (capillary regression) ([5]; 0.1 μg applied): +
Vascular reactivity (capillary regression) ([5]; 1 μg applied): +
Vascular reactivity (capillary regression) ([5]; 10 μg applied): +

CC(C)CCCC(C)[C@H]1CCC2C3CC[C@H]4C[C@@H](NCCCNCCCCNCCCN)CC[C@]4(C)C3CC[C@@]21C (some centres unmarked) [Compound 353]
Effect on endothelial cord formation ([1]; 0.1 μg/ml): +
Effect on endothelial cord formation ([1]; 1.0 μg/ml): +
Effect on endothelial cord formation ([1]; 10.0 μg/ml): +
Mechanism of cell death in exposed cells [6]: apoptotic cell death has been induced
IC50 ([6]; Homo sapiens): 3 µg/mL (≈ 5.24 µM)
IC50 [7]: 1.9 µg/mL (≈ 3.32 µM)
Pharmacological category in tadpole assay (similarity to a reference steroid) [2]: effects like those produced by compound 1436
Vascular reactivity (capillary regression) ([5]; 1 μg applied): +/−
Effect on chick embryo capillary bed ([5]; in vivo): no effect on the chick embryo capillary bed

CC(CCC(CO)(OS(=O)(=O)O)C(C)C)[C@H]1CCC2C3C(CC[C@@]21C)[C@@]1(C)CC[C@H](NCCCNCCCCN)C[C@@H]1C[C@H]3O (some centres unmarked) [Compound 1437]
Pharmacological response observed in tadpole ([2]; about 1 hour): Epithelium covering the embryonic portions of the animal, such as the tail and antennae, began to slough off in sheets; also recorded: the larval skin was observed to shed off in a sheet
Inhibition of PHA-stimulated human lymphocytes [8]: 10 % control
Effect on blood glucose ([9]; intravenous, 1436 in D5W (5% glucose), 1437 in water): caused hyperglycemia in mice
Fasting Blood Glucose Mean + SEM ([9]; male CD-1 mice, 2 × 10 mg/kg i.v. (total 20 mg/kg), overnight fast, blood 30 min. after 2d dose, 1437 and 1256 in H2O, 1436 in D5W): 82 ± 15.3 mg/dL
Anticancer activity [10]: exhibit anticancer activity
